# Assay results from patent publication EP0819124B1, “AZOLE COMPOUNDS WITH ANTIMYCOTIC ACTIVITY FOR HUMAN AND VETERINARY USE” (ZAMBON GROUP S.p.A., priority 1995, dated 1996).
# Read-outs that look alike come from different tables or passages of the source.
# Columns and labels:
# C. neoformans = assay: In vitro antimycotic activity, macromethod of scalar broth dilutions (YNB); assay type: cell-based; details: Cryptococcus neoformans
# Experimental: (§1) The determination of the activity inhibiting the growth of mycetes was evaluated by the macromethod of scalar brothdilutions in geometrical progression (M.R. McGinnis and M.G. Rinaldi, "Antifungal drugs: mechanisms of action, drug resistance, susceptibility testing and assay of activity in biological fluids", in Antibiotic in Laboratory Medicine, Ed. V. Lorian, Baltimora 1991).
# (§2) As culture media Yeast Nitrogen Base broth (YNB) and Sabouraud Dextrose broth (SDB) were used for yeasts and moulds, respectively.
# (§3) The results obtained in SDB (after incubation at 28°C for 7 days) were expressed as minimum inhibiting concentrations (MIC) the growth of mycetes, while those obtained in YNB (after incubation at 35°C for 48 hours) were expressed as concentrations able to inhibit at 50% (IC50) the growth of the yeast.
# (§4) As reference compounds Fluconazole, Itraconazole and Genaconazole were used.
# Candida albicans 1040 = assay: In vivo antimycotic activity in mice experimentally infected by C. albicans, oral route; design: species or system Charles River white mice (CD1 strain); details: for % percentage of survival after day 3 / % percentage of survival after day 6: mice infected by C. albicans, dose 25 mg/kg/os; for PD50 at 8th day / PD50 at 14th day: oral route, probits analysis; for PD50 at 8th day: 8 days from the infection; for PD50 at 14th day: 14 days from the infection
# Experimental: Charles River white mice (CD1 strain) weighing from 23 to 25 g, normo-feeded with standard diet and water ad libitum were used.
# A suspension (0.2 ml containing 2.5x10^7 cells/ml) of Candida albicans 1040 in physiologic solution was injected to each animal by venous route. Immediately after the infection and after 4, 24 and 48 hours, the animals received by oral route (in arabic gum at 2%) doses increasing in a geometrical progression of the compound to be tested. The infected group was used as control.
# The observation of the mortality of the mice was prolonged up to 14 days. From the number of survived animals for each concentration the average protective dose (DP50) was calculated by probits analysis (L.Lison - "Statistica applicata alla biologia sperimentale. La programmazione dell'esperimento e l'analisi dei risultati" - Casa Editrice Ambrosiana, 1961).
# Compounds R1 and R2 were used as comparative compounds.
# Fluconazole and Itraconazole were used as reference compounds.
# T.mentagrophytes = assay: In vitro antimycotic activity, macromethod of scalar broth dilutions (SDB); assay type: cell-based, Trychophyton mentagrophytes; details: Trichophyton mentagrophytes, 168 h
# Experimental: as §1, §2, §3, §4
# C. albicans 1040 = assay: In vitro antimycotic activity, macromethod of scalar broth dilutions (YNB); assay type: cell-based, Candida albicans
# Experimental: as §1, §2, §3, §4
# A. fumigatus = assay: In vitro antimycotic activity, macromethod of scalar broth dilutions (SDB); assay type: cell-based; details: Aspergillus fumigatus, 168 h
# Experimental: as §1, §2, §3, §4
# Fusarium sp = assay: In vitro antimycotic activity against recently isolated Fusarium strains (Tables 2 and 3); assay type: cell-based; details: Fusarium
# Experimental: as §1, §2, §3, §4
# (§5) Note to the table: MIC expressed as µg/ml Within brackets the number of tested strains Table 3
# C. tropicalis (2) = assay: In vitro antimycotic activity, strain panel (Table 2); assay type: cell-based; details: Candida tropicalis; C. tropicalis, 2 strains; single value or range printed under head MIC50 MIC90; read-out: MIC
# Experimental: as §1, §2, §3, §4, §5
# [1] = tested on: C. spp * (5) (C. parapsilosis, lusitaniae, kefyr); assay: as above; assay type: cell-based; details: Lodderomyces parapsilosis, C. parapsilosis, lusitaniae, kefyr, 5 strains; for MIC50: read-out: MIC50; for MIC90: read-out: MIC90
# Experimental: as §1, §2, §3, §4, §5
# C. albicans (7) = assay: as above; assay type: cell-based; details: Candida albicans, C. albicans, 7 strains; for MIC50: read-out: MIC50; for MIC90: read-out: MIC90
# Experimental: as §1, §2, §3, §4, §5
# Trichosporon sp. (1) = assay: as above; assay type: cell-based; details: Trichosporon sp., 1 strain; single value under head MIC50 MIC90; read-out: MIC
# Experimental: as §1, §2, §3, §4, §5
# B. capitatus (1) = assay: as above; assay type: cell-based; details: Magnusiomyces capitatus; B. capitatus, 1 strain; single value under head MIC50 MIC90; read-out: MIC
# Experimental: as §1, §2, §3, §4, §5
# C. neoformans (4) = assay: as above; assay type: cell-based; details: Cryptococcus neoformans, C. neoformans, 4 strains; for MIC50: read-out: MIC50; for MIC90: read-out: MIC90
# Experimental: as §1, §2, §3, §4, §5
# C. glabrata (2) = assay: as above; assay type: cell-based, Candida glabrata; details: Nakaseomyces glabratus; C. glabrata, 2 strains; single value or range printed under head MIC50 MIC90; read-out: MIC
# Experimental: as §1, §2, §3, §4, §5
# C. krusei (2) = assay: as above; assay type: cell-based, Candida krusei; details: Pichia kudriavzevii
# Experimental: as §1, §2, §3, §4, §5
# [2] = C. neoformans, YNB, incubation at 35°C for 48 hours, read-out: IC50
# [3] = T.mentagrophytes, SDB, incubation at 28°C for 7 days, read-out: MIC
# [4] = Candida albicans, C. albicans 1040, YNB, incubation at 35°C for 48 hours, read-out: IC50
# [5] = A. fumigatus, SDB, incubation at 28°C for 7 days, read-out: MIC
Structure (SMILES),IC50 (C. neoformans; [2]) [µg/mL],MIC (T.mentagrophytes; [3]) [µg/mL],IC50 (C. albicans 1040; [4]) [µg/mL],MIC (A. fumigatus; [5]) [µg/mL],PD50 at 8th day (Candida albicans 1040) [mg/kg/os],PD50 at 14th day (Candida albicans 1040) [mg/kg/os],also measured
"CCC(OC(F)(F)C(F)F)C(C)C(O)(Cn1cncn1)c1ccc(Cl)cc1Cl (racemic) [Compound 2, (±)-1-(1H-1,2,4-triazolyl)-2-hydroxy-2-(2,4-dichlorophenyl)-3-methyl-4-(1,1,2,2-tetrafluoroethoxy)hexane]",0.125,2,0.0312,4,–,–,% percentage of survival after day 3 (Candida albicans 1040): 100%; % percentage of survival after day 6 (Candida albicans 1040): 100%
"CC(C)(COC(F)(F)C(F)F)C(O)(Cn1cncn1)c1ccc(Cl)cc1 (racemic) [Compound 3, (±)-1-(1H-1,2,4-triazolyl)-2-hydroxy-2-(4-chlorophenyl)-3,3-dimethyl-4-(1,1,2,2-tetrafluoroethoxy)butane]",0.0625,1,0.0625,> 128,0.49,1.3,MIC (Fusarium sp): 16 to 64 µg/mL; MIC (C. tropicalis (2)): 0.5 µg/mL; MIC50 [1]: ≤ 0.03 µg/mL; MIC90 [1]: ≤ 0.03 µg/mL; MIC50 (C. albicans (7)): ≤ 0.03 µg/mL; MIC90 (C. albicans (7)): 2 µg/mL; MIC (Trichosporon sp. (1)): 0.12 µg/mL; MIC (B. capitatus (1)): 0.06 µg/mL; MIC50 (C. neoformans (4)): ≤ 0.03 µg/mL; MIC90 (C. neoformans (4)): 0.5 µg/mL; % percentage of survival after day 3 (Candida albicans 1040): 100%; % percentage of survival after day 6 (Candida albicans 1040): 100%; MIC (C. glabrata (2)): 0.5 to 2 µg/mL; MIC (C. krusei (2)): 0.03 to 0.5 µg/mL
"CC(COC(F)(F)C(F)F)C(O)(Cn1cncn1)c1ccc(Cl)cc1 (racemic) [Compound 4, (±)-1-(1H-1,2,4-triazolyl)-2-hydroxy-2-(4-chlorophenyl)-3-methyl-4-(1,1,2,2-tetrafluoroethoxy)butane]",0.5,4,0.0312,> 128,0.31,1.29,–
CC(C)(COC(F)(F)C(F)F)C(O)(Cn1cncn1)c1ccc(F)cc1F (racemic) [Compound 5],0.0156,0.25,0.0156,8,0.50,1.14,MIC (Fusarium sp): 0.25 µg/mL; MIC (C. tropicalis (2)): 0.12 µg/mL; MIC50 [1]: ≤ 0.03 µg/mL; MIC90 [1]: ≤ 0.03 µg/mL; MIC50 (C. albicans (7)): ≤ 0.03 µg/mL; MIC90 (C. albicans (7)): 0.5 µg/mL; MIC (Trichosporon sp. (1)): ≤ 0.03 µg/mL; MIC (B. capitatus (1)): 0.06 µg/mL; MIC50 (C. neoformans (4)): ≤ 0.03 µg/mL; MIC90 (C. neoformans (4)): ≤ 0.03 µg/mL; MIC (C. glabrata (2)): 0.12 µg/mL; MIC50 (C. krusei (2)): ≤ 0.03 µg/mL; MIC90 (C. krusei (2)): 0.12 µg/mL
"CC(COC(F)(F)C(F)F)C(O)(Cn1cncn1)c1ccc(F)cc1F (racemic) [Compound 6, (±)-1-(1H-1,2,4-triazolyl)-2-hydroxy-2-(2.4-difluorophenyl)-3-methyl-4-(1,1,2,2-tetrafluoroethoxy)butane]",0.0625,0.5,0.0312,16,0.42,1.10,–
"CCC(COC(F)(F)C(F)F)C(O)(Cn1cncn1)c1ccc(F)cc1F (racemic) [Compound 7, (±)-1-(1H-1,2,4-triazolyl)-2-hydroxy-2-(2,4-difluorophenyl)-3-ethyl-4-(1,1,2,2-tetrafluoroethoxy)butane nitrate]",–,–,–,–,1.5,2.19,"IC50 (C. neoformans; 48 h): 0.125 µg/mL; MIC (T.mentagrophytes): 0.5 µg/mL; IC50 (C. albicans 1040; Candida albicans, 1040, 48 h): 0.0312 µg/mL; MIC (A. fumigatus): 16 µg/mL"
"CC(C)(COC(F)(F)C(F)F)C(O)(Cn1cncn1)c1ccc(Cl)cc1Cl (racemic) [Compound 8, (±)-1-(1H-1,2,4-triazolyl)-2-hydroxy-2-(2,4-dichlorophenyl)-3,3-dimethyl-4-(1,1,2,2-tetrafluoroethoxy)butane]",0.0156,0.25,0.0312,> 4,–,–,–
